Test results published in patent publication US20030176500A1, “Medium chain fatty acids applicable as antimicrobial agents” (priority 2000, published 2003).

System: E. coli K88
Test: Control of E. coli K88 growth in Brain Heart Infusion broth (OD600nm)
Format: cell-based, Escherichia coli
Details: colistine 12 ppm, sodium salt of MCFA 1200 ppm; for OD600nm: pH 4.0, 37° C., MCFA values higher by intrinsic turbidity
Method: Three samples of 100 ml of fermentation broth (Brain Heart Infusion) were equally inoculated with an overnight culture of E. coli K88 (pathogen in gastrointestinal tract of piglet) and further incubated at 37° C. The optical density at 600 nm (OD600nm)—which is proportional to the amount of E. coli cells present (FIG. 1)—was measured. As soon as an OD600nm of between 0.2 and 0.5 was obtained,
(1) nothing was added to the first sample,
(2) 12 ppm of colistine was added to the second sample and
(3) 1200 ppm of the sodium salt of MCFA (mixture containing 50% of fatty acid with 8 carbon atoms and 50% of fatty acid with 10 carbon atoms) was added to the third sample.
The samples were further incubated at 37° C. for 4 hours at pH 4.0. The OD600nm was measured evey hour. The samples were removed from the incubation after 4 hours, the pH was measured in order to register possible pH changes during incubation.

colistine gave an OD600nm (2 hours after pH setting) of 0.420, an OD600nm (3 hours after pH setting) of 0.449 and an OD600nm (4 hours after pH setting) of 0.455. The “Difference in OD600nm” value (between 2 and 4 hours) was 0.035, the Growth % (blank = 100) was 44% and the “growth of E. coli retarded” value (pH 4.0) was 56%.
